From patent publication EP0314302A2, “Herbicidal o-carbomethoxy-sulfonylureas” (E.I. DU PONT DE NEMOURS AND COMPANY, priority 1987, dated 1989)

Columns and labels:
Wild oats = test: Test 10 postemergence safety to crops and weed control; assay type: in vivo, Avena fatua; details: 16 g/ha, scale 0-100
Procedure: The object of these tests was to evaluate the compound of this invention for postemergence safety to crops and weed control. Seedling and budded Macedine grapes were grown in 11.4-cm pots. Flax, green foxtail (Setaria viridis), "Morex" barley, wild oats (Avena fatua), "Era" wheat, annual ryegrass (Lolium multiflorum), wild radish (Raphanus raphanistrum), rape, sunflower, chickweed (Stellaria media) and wild buckwheat (Polygonum convolvulus) were seeded in windowsill pots.
The plants were sprayed postemergence with Compound I in a non-phytotoxic solvent. Plants were visually rated 15 and 27 days after treatment (DAT). Injury and weed control ratings were based on the scale of 0 to 100 where 0 = no effect, 20 minimal control and 100 = complete control.

Nightshade = test: Test 7 postemergence; assay type: in vivo, Solanum spp; details: scale 0-100
Procedure: Individual 11.4-cm plastic pots filled with planting medium were seeded with rape, wild radish (Raphanus raphanistruna). tansy mustard (Descurainia pinnata), ball mustard (Neslia paniculata), black mustard (Brassica nigra), yellow mustard, brown mustard, lentils, safflower, flax, sunflower, peanut, vetch, alfalfa, field bean, pea, violet (Viola spp), Kochia (Kochia spp), Russian thistle (Salsola spp), Matricaria spp, groundsel (Senecio spp), shepherdspurse (Capsella bursa-pastoris), nightshade (Solanum spp), sowthistle (Sonchus spp), sugar beet, wheat, "Bonanza" barley and "Morex" barley, Kentucky bluegrass (Poa pratensis), red clover (Trifolium pratense), dandelion (Taraxacum spp) and buckhorn plantain (Plantago lanceolata).
Plants were treated postemergence with the compound formulated with a non-phytotoxic carrier. Plants were visually rated 18 days after treatment (DAT). Response ratings were based on the scale of 0 to 100 where 0 = no effect, 20 = minimal injury and 100 = complete control.

Convolvulus arvensis = test: Test 1 greenhouse, preemergence; assay type: in vivo; details: 21 days, scale 0-100
Procedure: (§1) Seeds of Bromus tectorum, Kochia scoparia, Salsoa kali, Avena fatua, Convolvulus arvensis, Secale cereale, Setaria viridis and Triticum aestivum were placed in 26-cm plastic pans containing a pasteurized sandy loam soil (pH 6.5, 1% organic matter). Plantings were maintained in the greenhouse for 18-28 days at which time the postemergence treatments were applied using a nonphytotoxic solvent as the carrier for the herbicide. The preemergence segment of the test was seeded immediately before herbicide application using Bromus tectorum, Kochia scoparia, Polygonum convolvulus, Salsoa kali, Avena fatua, Convolvulus arvensis, Secale cereale, Setaria viridis, Aegilops cylindrica, Amaranthus retroflexus, Chenopodium album, Hordeum vulgare, Triticum aestivum, Sorghum bicolor, and Zea mays. All treatments were maintained in the greenhouse for an additional 21 days at which time visual assessment of weed control was determined using a scale of 0 to 100 for each species where 0 represented no control and 100 represented complete control.

Chenopodium album = test: Test 1 greenhouse, preemergence; assay type: in vivo; details: 21 days, scale 0-100
Procedure: as §1

Salsoa kali = test: Test 1 greenhouse, preemergence; assay type: in vivo; details: 21 days, scale 0-100
Procedure: as §1

Setaria viridis = test: Test 1 greenhouse, preemergence; assay type: in vivo; details: 21 days, scale 0-100
Procedure: as §1

Aegilops cylindrica = test: Test 1 greenhouse, preemergence; assay type: in vivo; details: 21 days, scale 0-100
Procedure: as §1

Zea mays = test: Test 1 greenhouse, preemergence; assay type: in vivo; details: 21 days, scale 0-100
Procedure: as §1

Bromus tectorum = test: Test 1 greenhouse, preemergence; assay type: in vivo; details: 21 days, scale 0-100
Procedure: as §1

Hordeum vulgare = test: Test 1 greenhouse, preemergence; assay type: in vivo; details: 21 days, scale 0-100
Procedure: as §1

Kochia scoparia = test: Test 1 greenhouse, preemergence; assay type: in vivo; details: 21 days, scale 0-100
Procedure: as §1

Secale cereale = test: Test 1 greenhouse, preemergence; assay type: in vivo; details: 21 days, scale 0-100
Procedure: as §1

Polygonum convolvulus = test: Test 1 greenhouse, preemergence; assay type: in vivo; details: 21 days, scale 0-100
Procedure: as §1

Sorghum bicolor = test: Test 1 greenhouse, preemergence; assay type: in vivo; details: 21 days, scale 0-100
Procedure: as §1

Triticum aestivum = test: Test 1 greenhouse, preemergence; assay type: in vivo; details: 21 days, scale 0-100
Procedure: as §1

Amaranthus retroflexus = test: Test 1 greenhouse, preemergence; assay type: in vivo; details: 21 days, scale 0-100
Procedure: as §1

Avena fatua = test: Test 1 greenhouse, preemergence; assay type: in vivo; details: 21 days, scale 0-100
Procedure: as §1

`COC(=O)c1cccnc1S(=O)(=O)NC(=O)Nc1nc(OC)cc(OC)n1` [Compound I, 2-[[(4,6-dimethoxypyrimidin-2-yl)aminocarbonyl]aminosulfonyl]-3-pyridinecarboxylic acid, methyl ester] was tested, and the “Plant Injury Rating 15 DAT” value (Wild oats) was 100, the “Plant Injury Rating 18 DAT” value (Nightshade; 16 g/ha) was 50 and the “Plant Injury Rating 18 DAT” value (Nightshade; 32 g/ha) was 60. For the same compound, the “visual assessment of weed control” value (Convolvulus arvensis; 4 g/ha) was 20, the “visual assessment of weed control” value (Convolvulus arvensis; 8 g/ha) was 40 and the “visual assessment of weed control” value (Convolvulus arvensis; 16 g/ha) was 90. For the same compound, the “visual assessment of weed control” value (Convolvulus arvensis; 32 g/ha) was 90, the “visual assessment of weed control” value (Convolvulus arvensis; 64 g/ha) was 100 and the “visual assessment of weed control” value (Convolvulus arvensis; 125 g/ha) was 100. The “visual assessment of weed control” value (Chenopodium album; 4 g/ha) was 60, the “visual assessment of weed control” value (Chenopodium album; 8 g/ha) was 90 and the “visual assessment of weed control” value (Chenopodium album; 16 g/ha) was 90. The “visual assessment of weed control” value (Chenopodium album; 32 g/ha) was 100, the “visual assessment of weed control” value (Chenopodium album; 64 g/ha) was 100 and the “visual assessment of weed control” value (Chenopodium album; 125 g/ha) was 100. For the same compound, the “visual assessment of weed control” value (Salsoa kali; 4 g/ha) was 50, the “visual assessment of weed control” value (Salsoa kali; 8 g/ha) was 70 and the “visual assessment of weed control” value (Salsoa kali; 16 g/ha) was 70. The “visual assessment of weed control” value (Salsoa kali; 32 g/ha) was 80, the “visual assessment of weed control” value (Salsoa kali; 64 g/ha) was 100 and the “visual assessment of weed control” value (Salsoa kali; 125 g/ha) was 100. The “visual assessment of weed control” value (Setaria viridis; 4 g/ha) was 20, the “visual assessment of weed control” value (Setaria viridis; 8 g/ha) was 30 and the “visual assessment of weed control” value (Setaria viridis; 16 g/ha) was 50. The “visual assessment of weed control” value (Setaria viridis; 32 g/ha) was 70, the “visual assessment of weed control” value (Setaria viridis; 64 g/ha) was 90 and the “visual assessment of weed control” value (Setaria viridis; 125 g/ha) was 100. The “visual assessment of weed control” value (Aegilops cylindrica; 4 g/ha) was 30, the “visual assessment of weed control” value (Aegilops cylindrica; 8 g/ha) was 50 and the “visual assessment of weed control” value (Aegilops cylindrica; 16 g/ha) was 60. The “visual assessment of weed control” value (Aegilops cylindrica; 32 g/ha) was 80, the “visual assessment of weed control” value (Aegilops cylindrica; 64 g/ha) was 100 and the “visual assessment of weed control” value (Aegilops cylindrica; 125 g/ha) was 100. The “visual assessment of weed control” value (Zea mays; 4 g/ha) was 40, the “visual assessment of weed control” value (Zea mays; 8 g/ha) was 50 and the “visual assessment of weed control” value (Zea mays; 16 g/ha) was 90. The “visual assessment of weed control” value (Zea mays; 32 g/ha) was 90, the “visual assessment of weed control” value (Zea mays; 64 g/ha) was 90 and the “visual assessment of weed control” value (Zea mays; 125 g/ha) was 100. For the same compound, the “visual assessment of weed control” value (Bromus tectorum; 4 g/ha) was 50, the “visual assessment of weed control” value (Bromus tectorum; 8 g/ha) was 70 and the “visual assessment of weed control” value (Bromus tectorum; 16 g/ha) was 80. For the same compound, the “visual assessment of weed control” value (Bromus tectorum; 32 g/ha) was 90, the “visual assessment of weed control” value (Bromus tectorum; 64 g/ha) was 90 and the “visual assessment of weed control” value (Bromus tectorum; 125 g/ha) was 100. The “visual assessment of weed control” value (Hordeum vulgare; 4 g/ha) was 50, the “visual assessment of weed control” value (Hordeum vulgare; 8 g/ha) was 60 and the “visual assessment of weed control” value (Hordeum vulgare; 16 g/ha) was 70. The “visual assessment of weed control” value (Hordeum vulgare; 32 g/ha) was 80, the “visual assessment of weed control” value (Hordeum vulgare; 64 g/ha) was 80 and the “visual assessment of weed control” value (Hordeum vulgare; 125 g/ha) was 90. For the same compound, the “visual assessment of weed control” value (Kochia scoparia; 4 g/ha) was 80, the “visual assessment of weed control” value (Kochia scoparia; 8 g/ha) was 80 and the “visual assessment of weed control” value (Kochia scoparia; 16 g/ha) was 100. The “visual assessment of weed control” value (Kochia scoparia; 32 g/ha) was 100, the “visual assessment of weed control” value (Kochia scoparia; 64 g/ha) was 100 and the “visual assessment of weed control” value (Kochia scoparia; 125 g/ha) was 100. For the same compound, the “visual assessment of weed control” value (Secale cereale; 4 g/ha) was 20, the “visual assessment of weed control” value (Secale cereale; 8 g/ha) was 30 and the “visual assessment of weed control” value (Secale cereale; 16 g/ha) was 40. For the same compound, the “visual assessment of weed control” value (Secale cereale; 32 g/ha) was 70, the “visual assessment of weed control” value (Secale cereale; 64 g/ha) was 80 and the “visual assessment of weed control” value (Secale cereale; 125 g/ha) was 90. The “visual assessment of weed control” value (Polygonum convolvulus; 4 g/ha) was 20, the “visual assessment of weed control” value (Polygonum convolvulus; 8 g/ha) was 20 and the “visual assessment of weed control” value (Polygonum convolvulus; 16 g/ha) was 80. For the same compound, the “visual assessment of weed control” value (Polygonum convolvulus; 32 g/ha) was 80, the “visual assessment of weed control” value (Polygonum convolvulus; 64 g/ha) was 80 and the “visual assessment of weed control” value (Polygonum convolvulus; 125 g/ha) was 100. For the same compound, the “visual assessment of weed control” value (Sorghum bicolor; 4 g/ha) was 90, the “visual assessment of weed control” value (Sorghum bicolor; 8 g/ha) was 100 and the “visual assessment of weed control” value (Sorghum bicolor; 16 g/ha) was 100. The “visual assessment of weed control” value (Sorghum bicolor; 32 g/ha) was 100, the “visual assessment of weed control” value (Sorghum bicolor; 64 g/ha) was 100 and the “visual assessment of weed control” value (Sorghum bicolor; 125 g/ha) was 100. The “visual assessment of weed control” value (Triticum aestivum; 4 g/ha) was 70, the “visual assessment of weed control” value (Triticum aestivum; 8 g/ha) was 100 and the “visual assessment of weed control” value (Triticum aestivum; 16 g/ha) was 100. The “visual assessment of weed control” value (Triticum aestivum; 32 g/ha) was 100, the “visual assessment of weed control” value (Triticum aestivum; 64 g/ha) was 100 and the “visual assessment of weed control” value (Triticum aestivum; 125 g/ha) was 100. For the same compound, the “visual assessment of weed control” value (Amaranthus retroflexus; 4 g/ha) was 70, the “visual assessment of weed control” value (Amaranthus retroflexus; 8 g/ha) was 90 and the “visual assessment of weed control” value (Amaranthus retroflexus; 16 g/ha) was 90. For the same compound, the “visual assessment of weed control” value (Amaranthus retroflexus; 32 g/ha) was 100, the “visual assessment of weed control” value (Amaranthus retroflexus; 64 g/ha) was 100 and the “visual assessment of weed control” value (Amaranthus retroflexus; 125 g/ha) was 100. For the same compound, the “visual assessment of weed control” value (Avena fatua; 4 g/ha) was 0, the “visual assessment of weed control” value (Avena fatua; 8 g/ha) was 40 and the “visual assessment of weed control” value (Avena fatua; 16 g/ha) was 50. The “visual assessment of weed control” value (Avena fatua; 32 g/ha) was 60, the “visual assessment of weed control” value (Avena fatua; 64 g/ha) was 90 and the “visual assessment of weed control” value (Avena fatua; 125 g/ha) was 100.
